Structures are written as SMILES. Like-named read-outs stand apart in the source and are kept apart here.

For 22 compounds, IC50 results are on record in patent US11564928B1, “Cannabinoid receptor type 2 (CB2) modulators and uses thereof” (Teon Therapeutics, Inc., priority 2020, dated 2023).

In one test the target is human CB2 receptor (Homo sapiens (Human), UniProt P34972). The experiment in a line: CB2 receptor binding assay ([3H]CP-55,940 displacement, HEK-293 membranes). As for the experimental part:
The compounds were evaluated in CB1R and CB2R binding assays using membranes from HEK-293 cells transfected with cDNAs encoding the human recombinant CB1R (Bmax=[…] protein) and human recombinant CB2R (Bmax=[…] protein) (Perkin-Elmer). […] Compounds were tested following the procedure described by the cell membrane manufacturer. […] CB2R binding assays were carried out with two different buffers: incubation buffer (Tris-HCl, 50 mM; MgCl2, 5 mM; CaCl2 1 mM; BSA, 0.2% at pH 7.4) and washing buffer (Tris-HCl, 50 mM; NaCl 500 mM; BSA, 0.1% at pH 7.4). […] Assays were performed in duplicate and incubated for […] at 37° C. […] Data are analyzed and IC50 is calculated using GraphPad Prism 5 and the model “log(inhibitor) vs. response—Variable slope”. The binding affinity of the compounds is Determined by Using the Cheng and Prusoff Equation Ki=IC50/(1+[radioligand]/Kd).

For another test, the target named is human recombinant CB1R (Homo sapiens (Human), UniProt P21554). The experiment in a line: CB1 receptor binding assay ([3H]CP-55,940 displacement, HEK-293 membranes). On the procedure: The compounds were evaluated in CB1R and CB2R binding assays using membranes from HEK-293 cells transfected with cDNAs encoding the human recombinant CB1R (Bmax=[…] protein) and human recombinant CB2R (Bmax=[…] protein) (Perkin-Elmer). […]. Compounds were tested following the procedure described by the cell membrane manufacturer. […] CB2R binding assays were carried out with two different buffers: incubation buffer (Tris-HCl, 50 mM; MgCl2, 5 mM; CaCl2 1 mM; BSA, 0.2% at pH 7.4) and washing buffer (Tris-HCl, 50 mM; NaCl 500 mM; BSA, 0.1% at pH 7.4). […] Assays were performed in duplicate and incubated for […] at 37° C. After the incubation, the assay mixture is filtered through 96 GF/C filter plates (Perkin Elmer #6005174) using Perkin Elmer Filtermate Harvester, and then washed four times with ice-cold washing buffer. The filters are dried for 1 hour at 50° C. and [^3H] trapped on filter counted for radioactivity in Perkin Elmer Microscint 20 cocktail (#6013329) using Perkin Elmer MicroBeta2 Reader. […] Data are analyzed and IC50 is calculated using GraphPad Prism 5 and the model “log(inhibitor) vs. response—Variable slope”. The binding affinity of the compounds is Determined by Using the Cheng and Prusoff Equation Ki=IC50/(1+[radioligand]/Kd).

Where [1] appears, read: membranes of HEK-293 cells with human recombinant CB1R, [3H]CP-55,940, class symbols, read-out: CB1 IC50.
The mark [2] stands for this setting: membranes of HEK-293 cells with human recombinant CB2R, [3H]CP-55,940, class symbols, read-out: CB2 IC50.
[3] abbreviates: membranes of HEK-293 cells with human recombinant CB2R, [3H]CP-55,940, read-out: CB2 IC50.
The mark [4] stands for this setting: membranes of HEK-293 cells with human recombinant CB1R, [3H]CP-55,940, read-out: CB1 IC50.

Chain of human CB2 receptor (P34972 whole entry): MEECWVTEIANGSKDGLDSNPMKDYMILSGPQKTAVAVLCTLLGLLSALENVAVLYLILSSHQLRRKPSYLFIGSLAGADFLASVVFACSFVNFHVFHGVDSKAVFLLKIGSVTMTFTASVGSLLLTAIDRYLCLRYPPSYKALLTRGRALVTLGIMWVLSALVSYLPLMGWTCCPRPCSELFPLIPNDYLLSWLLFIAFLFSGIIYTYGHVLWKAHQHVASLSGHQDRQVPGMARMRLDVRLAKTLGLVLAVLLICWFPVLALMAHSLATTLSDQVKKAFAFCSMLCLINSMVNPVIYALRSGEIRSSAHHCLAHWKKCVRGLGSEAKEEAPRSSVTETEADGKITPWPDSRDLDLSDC
Chain of human recombinant CB1R (P21554 whole entry): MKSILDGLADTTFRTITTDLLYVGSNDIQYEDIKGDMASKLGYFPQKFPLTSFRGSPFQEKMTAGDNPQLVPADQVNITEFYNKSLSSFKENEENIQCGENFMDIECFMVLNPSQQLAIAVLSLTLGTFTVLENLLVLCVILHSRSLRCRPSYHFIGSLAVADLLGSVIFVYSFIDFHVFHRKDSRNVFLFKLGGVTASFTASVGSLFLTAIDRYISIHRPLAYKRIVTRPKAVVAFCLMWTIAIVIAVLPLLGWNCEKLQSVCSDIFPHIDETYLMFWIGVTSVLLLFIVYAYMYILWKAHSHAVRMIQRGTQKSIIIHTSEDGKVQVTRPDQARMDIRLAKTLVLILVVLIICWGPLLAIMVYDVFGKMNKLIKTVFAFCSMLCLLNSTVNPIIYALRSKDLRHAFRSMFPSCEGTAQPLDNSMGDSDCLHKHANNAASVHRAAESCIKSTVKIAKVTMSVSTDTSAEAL

With `CC(NC(=O)c1c(O)c2cc(Br)cnc2n(Cc2ccc(F)cc2)c1=O)c1ccc(F)cc1` (centres unmarked) [Compound 1, 6-bromo-1-(4-fluorobenzyl)-N-(1-(4-fluorophenyl)ethyl)-4-hydroxy-2-oxo-1,2-dihydro-1,8-naphthyridine-3-carboxamide], the concentration for half-maximal inhibition (IC50) (as a rule, the concentration at which inhibition is half-maximal) on human CB2 receptor is 100 to 999 nM; at human recombinant CB1R (setting [1]), greater than 1000 nM.
On the same counts, the results for `O=C(NC1CC2(CCC2)C1)c1c(O)c2cc(Br)cnc2n(Cc2ccc(F)cc2)c1=O` [Compound 2, 6-bromo-1-(4-fluorobenzyl)-4-hydroxy-2-oxo-N-(spiro[3.3]heptan-2-yl)-1,2-dihydro-1,8-naphthyridine-3-carboxamide] are 100 to 999 nM and greater than 1000 nM.
On the same counts, the results for `CC(NC(=O)c1c(O)c2cc(Br)cnc2n(Cc2ccc(F)cc2)c1=O)c1ccc(C#N)cc1` (centres unmarked) [Compound 3, 6-bromo-N-(1-(4-cyanophenyl)ethyl)-1-(4-fluorobenzyl)-4-hydroxy-2-oxo-1,2-dihydro-1,8-naphthyridine-3-carboxamide] are 100 to 999 nM and greater than 1000 nM.
At human CB2 receptor, `O=C(NC1CC2(CCC2)C1)c1c(O)c2cc(Br)cnc2n(CCN2CCOCC2)c1=O` [Compound 4, 6-bromo-4-hydroxy-1-(2-morpholinoethyl)-2-oxo-N-(spiro[3.3]heptan-2-yl)-1,2-dihydro-1,8-naphthyridine-3-carboxamide] displayed a half-inhibitory concentration (IC50) of 100 to 999 nM.
With `O=C(NC12CC(C1)C2)c1c(O)c2cc(-c3ccc(OC(F)F)cc3)cnc2n(CCN2CCOCC2)c1=O` [Compound 12, N-(bicyclo[1.1.1]pentan-1-yl)-6-(4-(difluoromethoxy)phenyl)-4-hydroxy-1-(2-morpholinoethyl)-2-oxo-1,2-dihydro-1,8-naphthyridine-3-carboxamide], the IC50 at human CB2 receptor (setting [2]) and at human recombinant CB1R (setting [1]) was greater than 1000 nM throughout.
For `O=C(NC1CC2(CCC2)C1)c1c(O)c2cc(-c3ccccc3)cnc2n(CCN2CCOCC2)c1=O` [Compound 14, 4-hydroxy-1-(2-morpholinoethyl)-2-oxo-6-phenyl-N-(spiro[3.3]heptan-2-yl)-1,2-dihydro-1,8-naphthyridine-3-carboxamide], at human CB2 receptor (setting [2]), the IC50 is less than 100 nM.
For `CC1CCC(NC(=O)c2c(O)c3cc(-c4ccc(C5CC5)cc4)cnc3n(CCN3CCOCC3)c2=O)CC1` (centres unmarked) [Compound 17, 6-(4-cyclopropylphenyl)-4-hydroxy-N-(4-methylcyclohexyl)-1-(2-morpholinoethyl)-2-oxo-1,2-dihydro-1,8-naphthyridine-3-carboxamide], the half-inhibitory concentration (IC50) on human CB2 receptor is 100 to 999 nM; at human recombinant CB1R (setting [1]), greater than 1000 nM.
On to `CC1CCC(NC(=O)c2c(O)c3cc(-c4ccc(OC(C)C)cc4)cnc3n(CCN3CCOCC3)c2=O)CC1` (centres unmarked) [Compound 18, 4-hydroxy-6-(4-isopropoxyphenyl)-N-(4-methylcyclohexyl)-1-(2-morpholinoethyl)-2-oxo-1,2-dihydro-1,8-naphthyridine-3-carboxamide], for which the IC50 at human CB2 receptor (setting [2]) and on human recombinant CB1R (setting [1]) was greater than 1000 nM throughout.
As for `CC(NC(=O)c1c(O)c2cc(-c3ccc(C#N)cn3)cnc2n(CCN2CCOCC2)c1=O)c1ccc(F)cc1` (centres unmarked) [Compound 21, 6-(5-cyanopyridin-2-yl)-N-(1-(4-fluorophenyl)ethyl)-4-hydroxy-1-(2-morpholinoethyl)-2-oxo-1,2-dihydro-1,8-naphthyridine-3-carboxamide], the half-maximal inhibitory concentration (IC50) at human CB2 receptor was 100 to 999 nM; at human recombinant CB1R (setting [1]) it was greater than 1000 nM.
With `N#Cc1ccc(-c2cnc3c(c2)c(O)c(C(=O)NC2CC4(CCC4)C2)c(=O)n3CCN2CCOCC2)nc1` [Compound 22, 6-(5-cyanopyridin-2-yl)-4-hydroxy-1-(2-morpholinoethyl)-2-oxo-N-(spiro[3.3]heptan-2-yl)-1,2-dihydro-1,8-naphthyridine-3-carboxamide], the half-inhibitory concentration (IC50) at human CB2 receptor was 100 to 999 nM; on human recombinant CB1R (setting [1]), greater than 1000 nM.
For the compound `O=C(NC1CC2(CCC2)C1)c1c(O)c2cc(-c3ccc(F)cc3)ccc2n(CCN2CCOCC2)c1=O` [Compound 23, 6-(4-fluorophenyl)-4-hydroxy-1-(2-morpholinoethyl)-2-oxo-N-(spiro[3.3]heptan-2-yl)-1,2-dihydroquinoline-3-carboxamide], the IC50 on human CB2 receptor (setting [2]) was less than 100 nM; on human recombinant CB1R it was 100 to 999 nM.
For `CC(NC(=O)c1c(O)c2cc(-c3ccc(C#N)cn3)cnc2n(Cc2ccc(F)cc2)c1=O)c1ccc(C#N)cc1` (centres unmarked) [Compound 24, N-(1-(4-cyanophenyl)ethyl)-6-(5-cyanopyridin-2-yl)-1-(4-fluorobenzyl)-4-hydroxy-2-oxo-1,2-dihydro-1,8-naphthyridine-3-carboxamide], the IC50 on human CB2 receptor (setting [2]) and at human recombinant CB1R (setting [1]) was greater than 1000 nM throughout.
On to `O=C(NC1CC2(CCC2)C1)c1c(O)c2cc(-c3ccc(OC(F)F)cn3)cnc2n(CCN2CCOCC2)c1=O` [Compound 25, 6-(5-(difluoromethoxy)pyridin-2-yl)-4-hydroxy-1-(2-morpholinoethyl)-2-oxo-N-(spiro[3.3]heptan-2-yl)-1,2-dihydro-1,8-naphthyridine-3-carboxamide], for which the half-maximal inhibitory concentration (IC50) at human CB2 receptor (setting [2]) and at human recombinant CB1R (setting [1]) was greater than 1000 nM each time.
Regarding `COc1ccc(-c2cnc3c(c2)cc(C(=O)NC2CCC(C)(C)CC2)c(=O)n3CCN2CCOCC2)cc1` [Compound 26, N-(4,4-dimethylcyclohexyl)-6-(4-methoxyphenyl)-1-(2-morpholinoethyl)-2-oxo-1,2-dihydro-1,8-naphthyridine-3-carboxamide], the IC50 on human CB2 receptor (setting [3]) was 2.2 nM; at human recombinant CB1R (setting [4]), greater than 10000 nM.
The matching figures for `COc1ccc(-c2cnc3c(c2)cc(C(=O)NC2CCC(F)(F)CC2)c(=O)n3CCN2CCOCC2)cc1` [Compound 27, N-(4,4-difluorocyclohexyl)-6-(4-methoxyphenyl)-1-(2-morpholinoethyl)-2-oxo-1,2-dihydro-1,8-naphthyridine-3-carboxamide]: 2 nM and greater than 10000 nM.
Consider `O=C(NC1CC2(CCC2)C1)c1cc2cc(-c3ccc(OC(F)F)cn3)cnc2n(Cc2ccc(F)cc2)c1=O` [Compound 43, 6-(5-(difluoromethoxy)pyridin-2-yl)-1-(4-fluorobenzyl)-2-oxo-N-(spiro[3.3]heptan-2-yl)-1,2-dihydro-1,8-naphthyridine-3-carboxamide], for which the IC50 on human CB2 receptor fell in the range of 100 to 999 nM.
With `C[C@H](NC(=O)c1cc2cc(-c3ccc(OC(F)F)cn3)cnc2n(CCN2CCOCC2)c1=O)c1ccc(F)cc1` [Compound 49, (S)-6-(5-(difluoromethoxy)pyridin-2-yl)-N-(1-(4-fluorophenyl)ethyl)-1-(2-morpholinoethyl)-2-oxo-1,2-dihydro-1,8-naphthyridine-3-carboxamide], the IC50 at human CB2 receptor (setting [2]) was 100 to 999 nM.
On the same count and under the same terms, in the case of `O=C(NC12CC(C1)C2)c1c(O)c2cc(-c3ccc(F)cc3)cnc2n(CCN2CC3CC(C2)O3)c1=O` [Compound 165, 1-(2-(6-oxa-3-azabicyclo[3.1.1]heptan-3-yl)ethyl)-N-(bicyclo[1.1.1]pentan-1-yl)-6-(4-fluorophenyl)-4-hydroxy-2-oxo-1,2-dihydro-1,8-naphthyridine-3-carboxamide] it was greater than 1000 nM; in that of `O=C(NC12CC(C1)C2)c1c(O)c2cc(-c3ccc(F)cc3)cnc2n(CCN2C3COCC2C3)c1=O` [Compound 166, 1-(2-(3-oxa-6-azabicyclo[3.1.1]heptan-6-yl)ethyl)-N-(bicyclo[1.1.1]pentan-1-yl)-6-(4-fluorophenyl)-4-hydroxy-2-oxo-1,2-dihydro-1,8-naphthyridine-3-carboxamide], greater than 1000 nM; in that of `COc1c(C(=O)NC23CC(C2)C3)c(=O)n(CCN2CCOCC2)c2ncc(-c3ccc(F)cc3)cc12` [Compound 173, N-(bicyclo[1.1.1]pentan-1-yl)-6-(4-fluorophenyl)-4-methoxy-1-(2-morpholinoethyl)-2-oxo-1,2-dihydro-1,8-naphthyridine-3-carboxamide], greater than 1000 nM.
On to `COc1ccc(-c2cnc3c(c2)c(OC)c(C(=O)NC24CC(C2)C4)c(=O)n3CCN2CCOCC2)cc1` [Compound 177, N-(bicyclo[1.1.1]pentan-1-yl)-4-methoxy-6-(4-methoxyphenyl)-1-(2-morpholinoethyl)-2-oxo-1,2-dihydro-1,8-naphthyridine-3-carboxamide], for which the IC50 at human CB2 receptor (setting [2]) was greater than 1000 nM.
Still for that read-out and setting: the same measure for `COc1ccc(-c2cnc3c(c2)c(OC(C)C)c(C(=O)NC24CC(C2)C4)c(=O)n3CCN2CCOCC2)cc1` [Compound 180, N-(bicyclo[1.1.1]pentan-1-yl)-4-isopropoxy-6-(4-methoxyphenyl)-1-(2-morpholinoethyl)-2-oxo-1,2-dihydro-1,8-naphthyridine-3-carboxamide]: greater than 1000 nM.
